This is an account of results in patent US8673955B2, “Imidazole derivatives as fructose-1,6-bisphosphatase inhibitors and pharmaceutical compositions containing them” (Merck Patent GmbH, priority 2005, dated 2014).

Read-outs that look alike come from different tables or passages of the source.

Series [1] concerns the target T1, human liver recombinant Fructose-1,6-bisphosphatase (Homo sapiens, UniProt P09467).
T1 sequence (P09467 1-338): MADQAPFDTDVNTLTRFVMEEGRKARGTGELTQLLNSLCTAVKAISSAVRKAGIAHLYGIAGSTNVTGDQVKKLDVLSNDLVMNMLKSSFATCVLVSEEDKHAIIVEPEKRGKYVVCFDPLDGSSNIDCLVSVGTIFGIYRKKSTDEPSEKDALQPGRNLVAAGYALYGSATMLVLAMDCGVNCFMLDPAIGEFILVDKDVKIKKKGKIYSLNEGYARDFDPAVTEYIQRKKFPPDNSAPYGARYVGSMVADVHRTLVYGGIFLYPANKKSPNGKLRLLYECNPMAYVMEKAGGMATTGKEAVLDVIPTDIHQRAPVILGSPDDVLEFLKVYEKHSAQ
The experiment in a line: Inhibition of human liver recombinant fructose-1,6-bisphosphatase, coupled spectrophotometric enzyme assay. In kind it is biochemical. As for the experimental part: Enzymatic activity was measured spectrophotometrically in reactions that coupled the formation of product (fructose 6-Phosphate) to the reduction of NADP+, using phosphoglucoisomerase (PGI) and glucose 6-phosphate dehydrogenase (G6PDH) as the coupling enzymes.
Reaction mixtures (250 μl) were made up in 96-well microtitre plates, and consisted of 20 mM triethanolamine, pH 7.5, 2 mM MgCl2, 0.1 mM EDTA, 40 mM ammonium sulfate, 0.5 mM NADP, 1 U/ml G6PDH, 1 U/ml PGI and 0.167 mM substrate (Fructose 1,6-bisphosphate). The inhibitors were prepared at 10^-2 M in DMSO 100% and tested at 10^-5 M (DMSO 0.1%).
Reactions were started by the addition of the human liver recombinant Fructose-1,6-bisphosphatase and were monitored for 30 minutes at 340 nm in a Tecan Plate Reader (Room temperature).

The test system of series [2] is primary culture of rat hepatocytes. The experiment in a line: Hepatic glucose production in primary culture of rat hepatocytes (DHA as gluconeogenic precursor). In kind it is cell-based. Conditions: 100 μM compound; 3 h incubation with DHA; control without compound = 100%. Here is the method:
Effects of the compounds previously described on hepatic glucose production in primary culture of rat hepatocytes.
Hepatocytes were isolated from normal Wistar rats in overnight fasted condition by collagenase perfusion as described by Seglen (Methods Cell Biol., (1975); 13, 29-83). Cell viability was assessed by the trypan blue exclusion test. The isolated hepatocytes were suspended in William's medium containing 10% fetal bovine serum in 6 well plates. After cell attachment (4 h) the medium was changed to remove cellular debris and replaced by serum-free minimum essential medium without glucose and the hepatocytes were cultured for 16-18 h (37° C.; 5%, CO2). At the end of the culture and after removing the medium, glucose production was assessed by incubating hepatocytes for 3 h in KREBS buffer supplemented with dihydroxyacetone (DHA) as a gluconeogenic precursor in the presence or not of the different compounds previously described. After the 3 h incubation time, the amount of glucose in the buffer was assayed by a glucose oxidase method (GOD). The total amount of cellular protein per well was measured by the method of Lowry. The results were expressed as nanomoles of glucose produced per mg cell protein. The activity of the tested compounds was expressed as % of control glucose production in presence of DHA and without compound (100%).

Setting [3] is: stated in method text, read-out: IC50 for reference inhibitors of Fructose-1,6-bisphosphatase.
[4] abbreviates: 0.167 mM fructose 1,6-bisphosphate, pH 7.5, room temperature, read-out: Inhibition of human F-1,6-Bpase IC50.

In general, IC50 refers to the concentration that gives 50% inhibition.

`Nc1ncnc2c1ncn2[C@@H]1O[C@H](COP(=O)(O)O)[C@@H](O)[C@H]1O` [AMP, reference compound]: the IC50 in series [1] (setting [3]) is about 10 µM.

`O=C(O)c1ccc(Cn2cc(COCc3cccc(-c4ccccc4)c3)nc2-c2ccc(Cl)s2)cc1` [Example 20, 4-[4-(Biphenyl-3-ylmethoxymethyl)-2-(5-chlorothiophen-2-yl)imidazol-1-ylmethyl]benzoic acid]: the IC50 in series [1] (setting [4]) turned out to be 70.2 µM. For the same compound, the “Hepatic glucose production (rat hepatocytes) % of control at 100 μM” value in series [2] is given as 10 % of control.

With `Cc1nc(-c2ccc3ccc(COCc4cn(Cc5ccc(C(=O)O)cc5)c(-c5ccc(Cl)s5)n4)cc3c2)no1` [Example 26, 4-{2-(5-Chlorothiophen-2-yl)-4-[7-(5-methyl-[1,2,4]-oxadiazol-3-yl)naphthalen-2-ylmethoxymethyl]imidazol-1-ylmethyl}benzoic acid], the IC50 in series [1] (setting [4]) was determined as 51.2 µM. For the same compound, the “Hepatic glucose production (rat hepatocytes) % of control at 100 μM” value in series [2] is 44 % of control.

With `O=C(O)c1ccc(Cn2cc(COCc3ccc(Cl)cc3)nc2-c2ccc(Br)cc2)cc1` [Example 47, 4-[2-(4-Bromophenyl)-4-(4-chlorobenzyloxymethyl)imidazol-1-ylmethyl]benzoic acid], in series [1] (setting [4]), the IC50 turned out to be 88.3 µM. Moreover, in series [2], the “Hepatic glucose production (rat hepatocytes) % of control at 100 μM” value is 61 % of control.

With `O=P(O)(O)OC[C@H]1O[C@@](CO)(OP(=O)(O)O)[C@@H](O)[C@@H]1O` [Fructose-2,6-Bisphosphate, reference compound], in series [1] (setting [3]), the IC50 is about 35 µM.
